This passage reports EC50 results from US20240166652A1, “MODULATORS OF THE INTEGRATED STRESS PATHWAY” (Calico Life Sciences LLC, priority 2017, published 2024).

This assay deals with ATF4 luciferase reporter in HEK293T cells. As to the kind of experiment: ATF4-Luc assay (ATF4 luciferase reporter, tunicamycin-treated HEK293T cells). In kind it is cell-based, human. The conditions noted are these: Homo sapiens, HEK-293T; HEK293T cells carrying the ATF4 luciferase reporter, 1 μg/mL tunicamycin, 7 hours. (In a reporter assay the amount or activity of a reporter protein is the signal.)
As to `O=C(COc1ccc(S(F)(F)(F)(F)F)cc1)NC12CCC(NC(=O)COc3ccc(Cl)c(F)c3)(CC1)[C@@H](O)C2` [Compound 839, 2-(4-chloro-3-fluorophenoxy)-N-[(2S)-2-hydroxy-4-{2-[4-(pentafluoro-lambda^6-sulfanyl)phenoxy]acetamido}bicyclo[2.2.2]octan-1-yl]acetamide], the EC50 (commonly the concentration that produces a half-maximal response) is < 0.01 µM.

On to `O=C(COc1ccccc1)NC12CCC(NC(=O)COc3ccc(Cl)c(F)c3)(CC1)[C@@H](O)C2` [Compound 840, 2-(4-chloro-3-fluorophenoxy)-N-[(2S)-2-hydroxy-4-(2-phenoxyacetamido)bicyclo[2.2.2]octan-1-yl]acetamide], for which the EC50 was < 0.01 µM.

For the molecule `Cc1cc(OCC(=O)NC23CCC(NC(=O)COc4ccc(C(F)(F)F)c(F)c4)(CC2)C[C@@H]3O)ccc1Cl` [Compound 841, 2-(4-chloro-3-methylphenoxy)-N-[(2S)-4-{2-[3-fluoro-4-(trifluoromethyl)phenoxy]acetamido}-2-hydroxybicyclo[2.2.2]octan-1-yl]acetamide], the EC50 is < 0.01 µM.

In the case of `O=C(COc1ccc(C(F)(F)F)c(F)c1)NC12CCC(NC(=O)COc3ccc(F)c(F)c3)(CC1)[C@@H](O)C2` [Compound 842, 2-(3,4-difluorophenoxy)-N-[(2S)-4-{2-[3-fluoro-4-(trifluoromethyl)phenoxy]acetamido}-2-hydroxybicyclo[2.2.2]octan-1-yl]acetamide], the EC50 was < 0.01 µM.

In the case of `O=C(COc1ccc(C(F)(F)F)c(F)c1)NC12CCC(NC(=O)COc3ccc(Cl)cc3)(CC1)[C@@H](O)C2` [Compound 843, 2-(4-chlorophenoxy)-N-[(2S)-4-{2-[3-fluoro-4-(trifluoromethyl)phenoxy]acetamido}-2-hydroxybicyclo[2.2.2]octan-1-yl]acetamide], the concentration for a half-maximal effect (EC50) is < 0.01 µM.

On to `O=C(COc1ccc(C(F)(F)F)c(F)c1)NC12CCC(NC(=O)COc3ccc(F)cc3)(CC1)[C@@H](O)C2` [Compound 844, 2-(4-fluorophenoxy)-N-[(2S)-4-{2-[3-fluoro-4-(trifluoromethyl)phenoxy]acetamido}-2-hydroxybicyclo[2.2.2]octan-1-yl]acetamide], for which the EC50 is < 0.01 µM.

With `O=C(COc1ccc(F)c(C(F)(F)F)c1)NC12CCC(NC(=O)COc3ccc(F)c(F)c3)(CC1)[C@@H](O)C2` [Compound 845, 2-(3,4-difluorophenoxy)-N-[(2S)-4-{2-[4-fluoro-3-(trifluoromethyl)phenoxy]acetamido}-2-hydroxybicyclo[2.2.2]octan-1-yl]acetamide], the concentration for a half-maximal effect (EC50) is < 0.01 µM.

With `O=C(COc1ccc(F)c(C(F)(F)F)c1)NC12CCC(NC(=O)COc3ccc(Cl)cc3)(CC1)[C@@H](O)C2` [Compound 846, 2-(4-chlorophenoxy)-N-[(2S)-4-{2-[4-fluoro-3-(trifluoromethyl)phenoxy]acetamido}-2-hydroxybicyclo[2.2.2]octan-1-yl]acetamide], the concentration for a half-maximal effect (EC50) is < 0.01 µM.

In the case of `O=C(COc1ccc(F)c(C(F)(F)F)c1)NC12CCC(NC(=O)COc3ccc(F)cc3)(CC1)[C@@H](O)C2` [Compound 847, 2-(4-fluorophenoxy)-N-[(2S)-4-{2-[4-fluoro-3-(trifluoromethyl)phenoxy]acetamido}-2-hydroxybicyclo[2.2.2]octan-1-yl]acetamide], the EC50 was < 0.01 µM.

Turning to `O=C(COc1ccc(F)c(C(F)(F)F)c1)NC12CCC(NC(=O)COc3ccc(Cl)c(F)c3)(CC1)[C@@H](O)C2` [Compound 848, 2-(4-chloro-3-fluorophenoxy)-N-[(2S)-4-{2-[4-fluoro-3-(trifluoromethyl)phenoxy]acetamido}-2-hydroxybicyclo[2.2.2]octan-1-yl]acetamide], the 50% effective concentration (EC50) was < 0.01 µM.

Consider `O=C(COc1ccc(C(F)(F)F)c(F)c1)NC12CCC(NC(=O)COc3ccc(Cl)c(F)c3)(CC1)[C@@H](O)C2` [Compound 849, 2-(4-chloro-3-fluorophenoxy)-N-[(2S)-4-{2-[3-fluoro-4-(trifluoromethyl)phenoxy]acetamido}-2-hydroxybicyclo[2.2.2]octan-1-yl]acetamide], for which the concentration giving a half-maximal response (EC50) was < 0.01 µM.
